Several values for one entry are separate records, joined by “and”; a condition that tells them apart may be missing. Equal entries are not always repeated. Where two headings read alike, the source gives them in different places.
What was measured:
Assay type in all cases: cell-based
[1] = system: Escherichia coli (E. coli—ATCC #10536); assay: Synergy test: high resolution MBC microtiter plate assay, phosphate buffer containing 35% dipropylene glycol, 15 seconds contact; conditions: E. coli 10536; for SI (Synergy Index = Qa/QA + Qb/QB): at Qa and Qb, <1 synergy, 1 additivity, >1 antagonism; for Qb: MBC of the second component (B) acting alone (QB): component alone (Qa = 0), complete kill in 15 seconds
From the text: One measure of synergy is -the industrially accepted method described by Kull, F. C.; Eisman, P. C.; Sylwestrowicz, H. D. and Mayer, R. L., in Applied Microbiology 9:538-541 (1961), using the ratio determined by the formula:
Qa/QA+Qb/QB=Synergy Index (“SI”)
wherein: QA=concentration of compound A (first component) in percent, acting alone, which produced an end point (MBC of Compound A). Qa =concentration of compound A in percent, in the mixture, which produced an end point. QB=concentration of compound B (second component) in percent, acting alone, which produced an end point (MBC of Compound B). Qb=concentration of compound B in percent, in the mixture, which produced an end point.
When the sum of Qa/QA and Qb/QB is greater than one, antagonism is indicated. […] The lower the SI, the greater is the synergy shown by that particular mixture. The minimum biocidal concentration (MBC) of a microbicide is the lowest concentration tested under a specific set of conditions that provides complete kill of the tested microorganisms.
Synergy tests were-conducted using standard microtiter plate assays with, phosphate buffer containing 35% dipropylene glycol (DPG). In this method, a wide range of combinations of chemicals was tested by conducting high resolution MBC assays of Component (A) in the presence of various concentrations of Component (B). High resolution MBCs were determined by adding varying amounts of microbicide to one column of a microtiter plate and doing subsequent ten-fold dilutions using an automated liquid handling system to obtain a series of closely spaced endpoints. The MBC plate was inoculated one column at a time with the test microorganism. An aliquot of the inoculated well was transferred at 15 seconds to a plate containing a neutralizing agent (D/E Neutralizing Broth), mixed and held for 5 minutes before being transferred to a growth plate containing trypticase soy broth (TSB). The TSB plate was incubated at 37° C. and read for the presence/absence of growth at 24 hours. The lowest level tested that provided complete kill (as evidenced by no growth in the microtitre plate) of the test organisms in 15 seconds is the minimum biocidal concentration (MBC).
The synergy of the combinations of the present invention was determined against a bacterium, Escherichia coli (E. coli—ATCC #10536), at a concentration of approximately 1×10^8 bacteria per mL. This microorganism is representative of natural contaminants in many consumer and industrial applications.

[2] = system: Escherichia coli (E. coli—ATCC #10536); assay: Automated assessment of efficacy in model surfactant base (2.85% sodium cocoyl glycinate + 1.85% sodium lauroamphoacetate, pH 10), 15 seconds exposure, OD450/OD590 readout; conditions: for MBC: Escherichia coli, ATCC10536, 15 s; for No. of replicates showing growth (out of 4) / Δ OD 450 nm = OD450 (time = 16 hours) - OD450 (time zero), Mean / Δ OD 590 nm OD590 (time = 16 hours) - OD590 (time zero), Mean: model surfactant solution
Method: Solutions were prepared such that the concentrations of the surfactant components and test actives were 1.1×x the final desired concentration in order to allow for dilution with the bacterial inoculum in the test. The solutions were manually adjusted to pH 10.0 by drop wise addition of sodium hydroxide solution, as measured with a phi meter at ambient temperature.
Tests were conducted using standard microtiter plate assays using an automated liquid handling system, 270 μl of the surfactant test solution was pipetted into each well of the microtitre plate and 30 μl of the bacterial suspension was then added. After exactly 15 seconds of bacterial exposure, a 30 μl volume of bacterial cells was withdrawn and transferred to 270 μl of D/E quench solution. After 5 minutes in the D/E quench, the optical density (OD) was measured for each plate in turn at two specific wavelengths (450 nm and 590 nm). These provide a dual check of antimicrobial activity, as the OD450 reading is specific for the yellow colour of D/E quench when bacterial growth is observed, whereas OD590 is specific for the initial purple colour of the D/E quench which is retained if no bacterial growth is observed. After the time zero OD measurements, plates were then incubated at 37° C. overnight (16 hours) before repeating the OD measurements. Delta OD values were calculated by subtracting […] the initial value at time zero. Bacterial growth is observed as an increase in OD450 and a decrease in ΔOD590. To identify antibacterially efficacious systems (those preventing appreciable bacterial growth after incubation), the following threshold changes in OD readings have been adopted: if (1), OD450 increases by less than 0.2 absorbance unit on incubation and (2). OD590 decreases by less than 0.35 unit on incubation. Conversely, where OD450 increases by more than 0.2 AU and OD590 decreases by more than 0.35 unit after incubation, corresponding to a colour shift from purple to yellow, the test system allows bacterial growth and is not deemed efficacious. Four replicate measurements in the same plate have been made for each test system. The number of replicate wells showing either bacterial growth or no growth is also readily assessed by eye by following the colour change.
Dose responses for individual components and binary mixtures of actives at a used concentration ratio were generated by sequential dilution of liquors with further surfactant solution to obtain a series of endpoints.
In some selected cases, the combinations were also tested at the weight ratio 1:1.

[3] = system: Escherichia coli (10536 strain); assay: Antimicrobial efficacy in water, 15 seconds contact, mean bacterial survival NMBS by colony count
Method: An overnight culture of Escherichia coli (10536 strain) was prepared in 50 ml total volume of TSB broth, grown for ca. 18 hrs at 37° C. and shaken at 150 rpm. 1 ml of this overnight E. coli culture was transferred to 50 ml of fresh TSB broth and incubated at 37° C. at 150 rpm for ca. 4 hours. […] This bacterial stock was used for assaying against antimicrobial actives (in triplicate).
The following assay describes the testing of 8 materials using 6 dilutions across half of a 96-well micro litre plate (MTP). Using this approach it is possible to assay 16 actives (without replicates) with, one full dilution plate, replicating this set up in two halves of the plate columns, 1-6 and 7-12.
IM solutions of the test actives were prepared in dimethylsulphoxide (DMSO).
Aliquots (270 μl) of the materials at 1.11 times the final concentration were dispensed into the wells of the MTP along one column (A1-H1). This MTP was labeled as the “Screening plate”.
In another MTP, labeled as the “Dilution plate”, 270 μl of D/E neutralising solution from DIFCO Composition was added to column 1. The composition of the neutralising solution was as follows: pancreatic digest of casein, 5.0 g/L; Yeast Extract, 2.5 g/L; Dextrose, 10 g/L, sodium thioglycollate, 1.0 g/L, sodium thiosulphate, 6.0 g/L; sodium bisulphite, 2.5 g/L; Polysorbate 80, 5.0 g/L; lecithin 7.0 g/L; bromocresol purple, 0.02 g/L with a pH is the range 7.6±0.2.
270 μl of tryptone diluent solution was added to all the remaining wells of the Dilution MTP (columns 2-6).
Bacterial stock (30 μl) was then added to the prepared 270 μl of the solution of actives in the Screening Plate and mixed, using a multichannel pipette with 8 tips to aspirate and dispense the same volume of bacterial stock in parallel to 8 wells in rows A-H. After a contact time of 15 seconds, the mixtures were quenched by transferring 30 μl volumes of the mixtures into the 270 μl D/E neutralising solution in the prepared dilution plate, using aspiration to mix. After exactly 5 minutes in the D/E neutralising solution, 30 μl volumes were transferred from column 1 to column 2 of the Dilution MTP and mixed, before transferring further 30 μl volumes from column 2 into column 3. This process was repeated serially diluting the bacteria across the plate to column 6.
30 μl volumes from each well in the Dilution MTP were transferred onto pre-labeled segment of Tryptone Soya Agar (TSA) plates starting from the lowest bacterial concentration (highest dilution, column 6) to the highest bacterial concentration (column 1). The TSA plates were allowed to stand for ca. 2 hours so that the 30 μl inocula spots could dry and the plates were then inverted and incubated overnight at 37° C. before enumerating the bacterial colonies at the labeled dilutions to determine the effects of the actives on bacterial growth.
Mean bacterial survival numbers NMBS (expressed in Log CFU/ml) are obtained by first determining the segment of the TSA plate where the number of bacterial colonies is countable. From the colony number in this segment, NMBS is calculated by the formula: […]
Here, Ncol is the colony count, and DF is the dilution factor taken from the MTP-well corresponding to the TSA plate segment (i.e. DF may range from 1 for the quench, to 6 for the highest dilution).

[4] = system: Staphylococcus aureus (10788 strain); assay: as above
[5] = in 2.85% sodium cocoyl glycinate + 1.85% sodium lauroamphoacetate solution at pH 10, E. coli, read-out: MBC (% w/v)

SMILES | SI (Synergy Index = Qa/QA + Qb/QB) [1] | Qb: MBC of the second component (B) acting alone (QB) [1] | MBC [2, 5] | No. of replicates showing growth (out of 4) ([2]; component alone at 0.2% w/v) | Δ OD 450 nm = OD450 (time = 16 hours) - OD450 (time zero), Mean ([2]; component alone at 0.2% w/v) | Δ OD 590 nm OD590 (time = 16 hours) - OD590 (time zero), Mean ([2]; component alone at 0.2% w/v) | No. of replicates showing growth (out of 4) ([2]; component alone at 0.5% w/v) | Δ OD 450 nm = OD450 (time = 16 hours) - OD450 (time zero), Mean ([2]; component alone at 0.5% w/v) | Δ OD 590 nm OD590 (time = 16 hours) - OD590 (time zero), Mean ([2]; component alone at 0.5% w/v) | No. of replicates showing growth (out of 4) ([2]; component alone at […] w/v) | Log reduction E. coli ATCC 10536 ([3]; component alone at 0.1% w/v) | Log reduction S. aureus ATCC 6538 ([4]; component alone at 0.1% w/v) | further results
C=CC(C)(O)CCC=C(C)C (racemic) [3,7-dimethylocta-1,6-dien-3-ol] | 1.00 | 0.5 weight % | > 5000 µg/mL | 4 out of 4 | −0.53 | 0.60 | 3 out of 4 | −0.30 | 0.50 | 4 out of 4 | 0.06 | −0.13 | 
CC=Cc1ccccc1O [2-propenylphenol] |  |  |  |  |  |  |  |  |  |  | 1.86 | 1.92 | Log reduction E. coli ATCC 10536 ([3]; component alone at 0.05% w/v): 1.27; Log reduction S. aureus ATCC 6538 ([4]; component alone at 0.05% w/v): −0.18
C/C=C/c1ccccc1O [(E)-2-(prop-1-enyl)phenol] | 1.00 |  |  | 4 out of 4 | −0.53 | 0.63 |  |  |  | 4 out of 4 |  |  | MBC ([2]; pH 10, read-out: MBC (% w/v)): > 2000 µg/mL; No. of replicates showing growth (out of 4) ([2]; component alone at 0.1% w/v): 4 out of 4; Δ OD 450 nm = OD450 (time = 16 hours) - OD450 (time zero), Mean ([2]; component alone at 0.1% w/v): −0.60; Δ OD 590 nm OD590 (time = 16 hours) - OD590 (time zero), Mean ([2]; component alone at 0.1% w/v): 0.59; Δ OD 450 nm = OD450 (time = 16 hours) - OD450 (time zero), Mean ([2]; component alone at […] w/v): −0.57; Δ OD 590 nm OD590 (time = 16 hours) - OD590 (time zero), Mean ([2]; component alone at […] w/v): 0.58
CC(C)=CCC/C(C)=C\CO [cis-3,7-dimethyl-2,6-octadien-1-ol] | 1.00 | 0.25 weight % and 0.3 weight % and 0.5 weight % | > 5000 µg/mL | 4 out of 4 | −0.53 | 0.60 | 2 out of 4 | −0.14 | 0.40 |  |  |  | No. of replicates showing growth (out of 4) ([2]; component alone at 0.3% w/v): 4 out of 4; Δ OD 450 nm = OD450 (time = 16 hours) - OD450 (time zero), Mean ([2]; component alone at 0.3% w/v): −0.51; Δ OD 590 nm OD590 (time = 16 hours) - OD590 (time zero), Mean ([2]; component alone at 0.3% w/v): 0.61; No. of replicates showing growth (out of 4) ([2]; component alone at 0.4% w/v): 4 out of 4; Δ OD 450 nm = OD450 (time = 16 hours) - OD450 (time zero), Mean ([2]; component alone at 0.4% w/v): −0.48; Δ OD 590 nm OD590 (time = 16 hours) - OD590 (time zero), Mean ([2]; component alone at 0.4% w/v): 0.62
